Measurements from patent US8361998B2, “Compounds and their use as IKACh blockers” (AstraZeneca AB, priority 2010, dated 2013).

Molecular target: T1, human cardiac ion channel proteins hKir3.1/Kir3.4 (Homo sapiens, UniProt P48544+P48549)
T1 construct: expressed in transfected cells
T1 sequence (P48549 1-501): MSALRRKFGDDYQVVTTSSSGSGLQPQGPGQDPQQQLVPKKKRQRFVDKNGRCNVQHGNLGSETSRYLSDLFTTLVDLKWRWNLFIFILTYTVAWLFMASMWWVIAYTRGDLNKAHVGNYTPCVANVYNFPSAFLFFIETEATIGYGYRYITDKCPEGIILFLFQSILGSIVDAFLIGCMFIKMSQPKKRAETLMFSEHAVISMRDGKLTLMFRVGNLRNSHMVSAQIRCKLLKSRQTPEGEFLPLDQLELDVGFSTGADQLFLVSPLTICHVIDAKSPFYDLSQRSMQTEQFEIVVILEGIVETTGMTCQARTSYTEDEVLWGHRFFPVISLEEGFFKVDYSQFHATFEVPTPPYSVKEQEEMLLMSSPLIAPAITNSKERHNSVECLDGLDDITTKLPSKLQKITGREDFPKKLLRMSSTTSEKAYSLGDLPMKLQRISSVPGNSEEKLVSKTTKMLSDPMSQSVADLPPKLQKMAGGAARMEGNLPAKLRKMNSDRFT
T1 sequence (P48544 1-419): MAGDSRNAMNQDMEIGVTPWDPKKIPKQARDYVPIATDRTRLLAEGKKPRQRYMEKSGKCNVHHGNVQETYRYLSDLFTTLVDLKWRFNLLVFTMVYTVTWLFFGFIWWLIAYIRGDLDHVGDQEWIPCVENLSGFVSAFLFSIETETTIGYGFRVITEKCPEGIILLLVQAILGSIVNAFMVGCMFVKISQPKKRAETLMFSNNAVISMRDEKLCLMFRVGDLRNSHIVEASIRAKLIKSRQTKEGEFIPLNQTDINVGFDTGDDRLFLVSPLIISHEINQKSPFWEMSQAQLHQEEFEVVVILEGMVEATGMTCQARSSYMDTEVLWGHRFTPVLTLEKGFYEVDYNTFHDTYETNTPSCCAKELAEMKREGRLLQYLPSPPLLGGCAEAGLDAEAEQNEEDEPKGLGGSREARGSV
Assay: Atomic Absorption Screening (AAS) Rb efflux assay of hKir3.1/Kir3.4 block, carbachol/high K+ stimulated, 10-pt or 7-pt CR
Assay type: cell-based
Details: 7-pt CR (0.037 to 27 μmol/L), AAS Rb efflux, CHO-K1 cells expressing hKir3.1/Kir3.4; mean of >3 replicates; read-out: IKACh IC50 7-pt CR, AAS
How it was run: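 CHO-K1 cells stably co-expressing human Kir3.1/Kir3.4 were Rb-loaded for 3 h at 37° C, preincubated with compound 5 min at RT, then stimulated 10 min with 10 μM carbachol plus 20 mM KCl (final). Supernatant Rb was measured by atomic absorption. Compounds ran at 0.003–67 μmol/L (10-pt) or 0.037–27 μmol/L (7-pt), threefold dilutions; IC50s are means of >4 or >3 replicates respectively.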

Row | IC50 [µM] | SMILES
1 | > 27 | CC(C)[C@@H](CN1CCCC1)N(C)C(=O)c1c(F)cccc1F [Example 16.24, 2,6-Difluoro-N-methyl-N-[(1S)-2-methyl-1-(pyrrolidin-1-ylmethyl)propyl]benzamide]
2 | 3.7 | CC(C)[C@@H](CN1CC[C@H](O)C1)N(C)C(=O)c1ccc(F)cc1Cl [Example 10.1, (3S)-1-((S)-2-(2-Chloro-4-fluoro-N-methylbenzamido)-3-methylbutyl)-3-hydroxypyrrolidinium 2,3-dihydroxysuccinate]
3 | 16 | CC(C)[C@H](CN1CCCC1)N(C)C(=O)c1ccc(Br)c(F)c1 [Example 16.60, (R)-4-Bromo-3-fluoro-N-methyl-N-(3-methyl-1-(pyrrolidin-1-yl)butan-2-yl)benzamide]
4 | 8 | CC(C)[C@@H](CN1CCCC1)N(C)C(=O)c1cc(F)cc(C(F)(F)F)c1 [Example 16.8, (S)-3-Fluoro-N-methyl-N-(3-methyl-1-(pyrrolidin-1-yl)butan-2-yl)-5-(trifluoromethyl)benzamide]
5 | 3.2 | Cc1cc(C(=O)N(C)[C@H](CN2CC[C@H](O)C2)C(C)C)ccc1F [Example 16.40, 4-Fluoro-N-[(1S)-1-{[(3S)-3-hydroxypyrrolidin-1-yl]methyl}-2-methylpropyl]-N,3-dimethylbenzamide]
6 | 19 | CC(C)[C@@H](CN1CC[C@H](O)C1)N(C)C(=O)c1ccc(F)cc1C(F)(F)F [Example 16.46, 4-Fluoro-N—((S)-1-((S)-3-hydroxypyrrolidin-1-yl)-3-methylbutan-2-yl)-N-methyl-2-(trifluoromethyl)benzamide]

Row | SMILES | IC50 [µM]
7 | CC(C)[C@@H](CN1CCCCC1)N(C)C(=O)c1ccc(Cl)cc1F [Example 16.31, 4-Chloro-2-fluoro-N-methyl-N-[(1S)-2-methyl-1-(piperidin-1-ylmethyl)propyl]-benzamide] | 2.4

Same assay, conditions: 10-pt CR (0.003 to 67 μmol/L), AAS Rb efflux, CHO-K1 cells expressing hKir3.1/Kir3.4; mean of >4 replicates; read-out: IKACh IC50 10-pt CR, AAS

Row | SMILES | IC50 [µM]
8 | CN(C(=O)c1ccc(Br)cc1)[C@H](CN1CCCC1)C(C)(C)C [Example 2.2, (S)-4-Bromo-N-(3,3-dimethyl-1-(pyrrolidin-1-yl)butan-2-yl)-N-methylbenzamide] | 14
9 | CCC[C@@H](CN1CC(O)C1)N(C)C(=O)c1ccc(F)c(Cl)c1 [Example 8.3, (S)-3-Chloro-4-fluoro-N-(1-(3-hydroxyazetidin-1-yl)pentan-2-yl)-N-methylbenzamide] | 0.8
10 | CC(C)[C@@H](CN1CCCC1)N(C)C(=O)c1c(F)cccc1F [Example 16.24, 2,6-Difluoro-N-methyl-N-[(1S)-2-methyl-1-(pyrrolidin-1-ylmethyl)propyl]benzamide] | 9.8
11 | CC(C)[C@@H](CN1CC[C@H](O)C1)N(C)C(=O)c1ccc(F)cc1Cl [Example 10.1, (3S)-1-((S)-2-(2-Chloro-4-fluoro-N-methylbenzamido)-3-methylbutyl)-3-hydroxypyrrolidinium 2,3-dihydroxysuccinate] | 6.1
12 | CC(C)[C@@H](CN1CCCC(F)(F)C1)N(C)C(=O)c1ccc(Br)cc1 [Example 16.5, (S)-4-Bromo-N-(1-(3,3-difluoropiperidin-1-yl)-3-methylbutan-2-yl)-N-methyl-benzamide] | 11
13 | CN(C(=O)c1ccc(Cl)cc1)[C@H](CN1CCCC1)C1CC1 [Example 3.14, (S)-4-Chloro-N-(1-cyclopropyl-2-(pyrrolidin-1-yl)ethyl)-N-methylbenzamide] | 5.7
14 | Cc1cccc(C(=O)N(C)[C@H](CN2CCCC2)C2CC2)c1 [Example 3.17, (S)-N-(1-Cyclopropyl-2-(pyrrolidin-1-yl)ethyl)-N,3-dimethyl-benzamide] | 9.3
15 | CN(C(=O)c1ccc(F)c(F)c1)[C@H](CN1CC(O)(C2CC2)C1)C1CC1 [Example 9.3, (S)-N-(1-Cyclopropyl-2-(3-cyclopropyl-3-hydroxyazetidin-1-yl)ethyl)-3,4-difluoro-N-methylbenzamide] | 3.1
16 | CC(C)[C@@H](CN1CCC1)N(C)C(=O)c1ccccc1 [Example 1.14, (S)-N-(1-(Azetidin-1-yl)-3-methylbutan-2-yl)-N-methylbenzamide] | 6.6
17 | CCC[C@@H](CN1CCC(O)CC1)N(C)C(=O)c1ccc(Cl)cc1 [Example 44, (S)-4-Chloro-N-(1-(4-hydroxypiperidin-1-yl)pentan-2-yl)-N-methylbenzamide] | 0.81
18 | C[C@@H](CN1CC(O)C1)N(C)C(=O)c1ccc(Br)cc1 [Example 41, (S)-4-Bromo-N-(1-(3-hydroxyazetidin-1-yl)propan-2-yl)-N-methylbenzamide] | 7.3
19 | CC(C)[C@@H](CCN1CCCC1)N(C)C(=O)c1cccc(Cl)c1 [Example 13.3, (R)-3-Chloro-N-methyl-N-(4-methyl-1-(pyrrolidin-1-yl)pentan-3-yl)benzamide] | 19
20 | CCC[C@@H](CN1CC(O)C1)N(C)C(=O)c1ccc(Br)cc1 [Example 8.7, (S)-4-Bromo-N-(1-(3-hydroxyazetidin-1-yl)pentan-2-yl)-N-methylbenzamide] | 1.7

Next, values leading:

Row | IC50 [µM] | SMILES
21 | 9.3 | CC[C@H](C)C(CN1CC(O)C1)N(C)C(=O)c1ccc(F)c(F)c1 (stereo in doubt) [Example 29.1, 3,4-Difluoro-N-((2S,3S)-1-(3-hydroxyazetidin-1-yl)-3-methylpentan-2-yl)-N-methylbenzamide]
22 | 1.4 | CN(C(=O)c1ccccc1)[C@H](CN1CC(O)C1)C1CCC1 [Example 39.7, (S)—N-(1-Cyclobutyl-2-(3-hydroxyazetidin-1-yl)ethyl)-N-methylbenzamide]
23 | 8.5 | Cc1ccc(C(=O)N(C)[C@@H](C)CN2CC(O)C2)cc1C [Example 40.2, (S)—N-(1-(3-Hydroxyazetidin-1-yl)propan-2-yl)-N,3,4-trimethylbenzamide]
24 | 3.3 | CCC[C@@H](CN1CC(O)C1)N(C(=O)c1ccc(Cl)cc1)C(C)C [Example 34.1, 4-Chloro-N-[(2S)-1-(3-hydroxyazetidin-1-yl)pentan-2-yl]-N-(propan-2-yl)benzamide]
25 | 0.33 | CCC[C@@H](CN1CC(OC(C)C)C1)N(C)C(=O)c1ccc(Cl)cc1 [Example 31.4, 4-chloro-N-methyl-N-{(25)-1-[3-(propan-2-yloxy)azetidin-1-yl]pentan-2-yl}benzamide]
26 | 0.66 | Cc1cc(C(=O)N(C)[C@@H](CN2CC(O)C2)C2CCC2)ccc1F [Example 35.4, N-[(1R)-1-Cyclobutyl-2-(3-hydroxyazetidin-1-yl)ethyl]-4-fluoro-N,3-dimethylbenzamide]
27 | 8 | CN(C(=O)c1cccc(C(F)F)c1)[C@@H](CN1CC(O)C1)C1CCC1 [Example 35.8, N-[(1R)-1-Cyclobutyl-2-(3-hydroxyazetidin-1-yl)ethyl]-3-(difluoromethyl)-N-methylbenzamide]
28 | 11 | CC[C@H](C)[C@@H](CN1CC(O)C1)N(C)C(=O)c1cc(C)ccc1OC [Example 29.8, N-((2S,3S)-1-(3-Hydroxyazetidin-1-yl)-3-methylpentan-2-yl)-2-methoxy-N,5-dimethylbenzamide]
29 | 0.84 | CCCC[C@@H](CN1CC(O)C1)N(C)C(=O)c1ccc(C#N)cc1F [Example 33.3, 4-Cyano-2-fluoro-N-[(2S)-1-(3-hydroxyazetidin-1-yl)hexan-2-yl]-N-methylbenzamide]
30 | 3.4 | CN(C(=O)c1ccc(Cl)cc1)[C@@H](CN1CC(O)C1)C1CCC1 [Example 35.1, 4-Chloro-N-[(1R)-1-cyclobutyl-2-(3-hydroxyazetidin-1-yl)ethyl]-N-methylbenzamide]
31 | 1.1 | CN(C(=O)c1ccc(F)cc1Cl)[C@H](CN1CC(O)C1)C1CCC1 [Example 39.1, (S)-2-chloro-N-(1-cyclobutyl-2-(3-hydroxyazetidin-1-yl)ethyl)-4-fluoro-N-methylbenzamide]
32 | 7.8 | CN(C(=O)c1ccc(F)cc1F)[C@H](CN1CC(O)C1)C1CCC1 [Example 39.4, (S)—N-(1-Cyclobutyl-2-(3-hydroxyazetidin-1-yl)ethyl)-2,4-difluoro-N-methylbenzamide]

Same assay, conditions: printed as IC50 >67 μM in the 10-pt CR assay or IC50 >27 μM in the 7-pt CR assay; assay format per compound not stated; read-out: IC50

Row | IC50 [µM] | SMILES
33 | > 27 | CC(C)[C@@H](CN1CCCCC1)N(C)C(=O)c1cc(F)cc(F)c1F [2,3,5-Trifluoro-N-methyl-N-[(1S)-2-methyl-1-(piperidin-1-ylmethyl)propyl]benzamide]
34 | > 27 | COc1cccc(C(=O)N(C)[C@H](CN2CC(F)C2)C(C)C)c1 [(S)-N-(1-(3-Fluoroazetidin-1-yl)-3-methylbutan-2-yl)-3-methoxy-N-methylbenzamide]
35 | > 27 | Cc1cccc(C(=O)N(C)[C@H](CN2CC[C@H](O)C2)C(C)C)c1 [N-[(1S)-1-{[(3S)-3-Hydroxypyrrolidin-1-yl]methyl}-2-methylpropyl]-N,3-dimethylbenzamide]
